Test results as given in PMC11206519, “Multi-Endpoint Toxicological Assessment of Chrysin Loaded Oil-in-Water Emulsion System in Different Biological Models” (Nanomaterials, 2024).
“And” between values parts separate entries of the source, which are not always exact repeats. Equal entries are not always repeated.

Experiments:
[1] = test system: S. typhimurium TA 100; assay: Ames test, mutagenicity; type: cell-based, Salmonella Typhimurium; details: positive control
Method: (§1) The S. typhimurium strains TA 98 and TA 100 were used to detect frameshift and base-pair mutations, respectively. […] Then, they were poured onto minimal glucose agar containing a trace amount of histidine, following incubation at 37 °C for 48 h. Then, the revertant colonies were counted and compared with the negative control. If the number of revertant colonies in the tested sample treatment is at least twice that of the negative control (spontaneous revertant colonies), it is considered a mutagen.

[2] = test system: S. typhimurium TA 98; assay: Ames test, mutagenicity; type: cell-based, Salmonella Typhimurium; details: +S9; 0.5 µg/plate, positive control
Method: as §1

[3] = test system: D. melanogaster trans-heterozygous mwh+/+flr3 larvae of the HB cross; assay: SMART wing spot test, anti-mutagenicity, HB cross
Method: (§2) The somatic mutation and recombination test, or the wing spot test, using D. melanogaster was employed as an in vivo system to assess the mutagenicity and anti-mutagenicity of chrysin-ES. Two different crosses were conducted: (i) a standard cross (ST) and (ii) a high bioactivation cross (HB). The standard cross larvae were obtained from virgin female of flr3/TM3, Ser crossed with males of mwh/mwh, while the HB cross larvae expressing cytochrome P450 enzymes involved in xenobiotic biotransformation were obtained from virgin females of ORR/ORR; flr^3/In (3LR) TM3, ri p^psep l (3)89Aa bx^34e e Bd^s crossed with males of mwh/mwh. The flies were cultured at a constant temperature of 25 ± 1 °C and 60–70% RH at photoperiod 12:12 (light/dark). To evaluate the mutagenicity of chrysin and chrysin-ES, a hundred larva F1 progenies derived from the above crossing were fed with instant Drosophila medium (Formula 4-24®), Carolina, Burlington, NC, USA) containing chrysin or chrysin-ES (20–120 µg/mL). DI was used as a negative control, while 20 mM urethane (URE) was used as a positive control. The larvae were reared on each medium until pupation at 25 °C. After that, forty wings of surviving flies in each group were collected for mutant analysis. The mutant spots on the wings, including small single spots, large single spots, and twin spots, were counted. The statistical significance was calculated as previously described by Frei and Würgler.
(§3) Furthermore, the anti-mutagenicity of the samples was performed by a similar procedure as mentioned above.

[4] = test system: D. melanogaster trans-heterozygous mwh+/+flr3 larvae of the ST cross; assay: SMART wing spot test, anti-mutagenicity, ST cross
Method: as §2, §3

[5] = test system: S. typhimurium TA100; assay: Ames test, anti-mutagenicity; details: standard mutagen alone, 0.05 µg/plate, +S9
Method: (§4) Furthermore, the anti-mutagenicity of the samples was performed by a similar procedure, as mentioned above. […] The percentage inhibition (decrease revertant colony number) was calculated as in the following equation:Anti-mutagenicity (%) = [1 − (b/a)] × 100 • a = revertant colony number induced via standard mutagen (positive control). • b = revertant colony number induced by standard mutagen in the presence of each sample treatment.
(§5) The percent of inhibition between 0–20%, 21–40%, 41–60%, and higher than 60% indicate negligible, weak, moderate, and strong anti-mutagenicity, respectively.

[6] = test system: S. typhimurium TA98; assay: Ames test, anti-mutagenicity; details: standard mutagen alone, 0.1 µg/plate, +S9
Method: as §4, §5

[7] = test system: D. melanogaster trans-heterozygous mwh+/+flr3 larvae of the ST cross; assay: SMART wing spot test, mutagenicity, ST cross; type: in vivo, Drosophila melanogaster; details: 20 mM, positive control
Method: (§6) The somatic mutation and recombination test, or the wing spot test, using D. melanogaster was employed as an in vivo system to assess the mutagenicity and anti-mutagenicity of chrysin-ES. Two different crosses were conducted: (i) a standard cross (ST) and (ii) a high bioactivation cross (HB) [18]. The standard cross larvae were obtained from virgin female of flr3/TM3, Ser crossed with males of mwh/mwh, while the HB cross larvae expressing cytochrome P450 enzymes involved in xenobiotic biotransformation were obtained from virgin females of ORR/ORR; flr^3/In (3LR) TM3, ri p^psep l (3)89Aa bx^34e e Bd^s crossed with males of mwh/mwh. The flies were cultured at a constant temperature of 25 ± 1 °C and 60–70% RH at photoperiod 12:12 (light/dark). To evaluate the mutagenicity of chrysin and chrysin-ES, a hundred larva F1 progenies derived from the above crossing were fed with instant Drosophila medium (Formula 4-24®), Carolina, Burlington, NC, USA) containing chrysin or chrysin-ES (20–120 µg/mL). DI was used as a negative control, while 20 mM urethane (URE) was used as a positive control. The larvae were reared on each medium until pupation at 25 °C. After that, forty wings of surviving flies in each group were collected for mutant analysis. The mutant spots on the wings, including small single spots, large single spots, and twin spots, were counted.

[8] = test system: D. melanogaster trans-heterozygous mwh+/+flr3 larvae of the HB cross; assay: SMART wing spot test, mutagenicity, HB cross; type: in vivo, Drosophila melanogaster; details: 20 mM, positive control
Method: as §6

[9] = NMU alone (sodium nitrite 36 mM: methylurea 10 mM)
[10] = Nitrite alone (sodium nitrite 36 mM)

Nc1ccc2cc3ccccc3cc2c1 [2-AA, 2-Aminoanthracene, reference compound]
Number of Revertant Colonies ([1]; +S9, 0.5 µg/plate): 487 ± 29 | Number of Revertant Colonies [2]: 459 ± 44

NC(=O)C(=Cc1ccc([N+](=O)[O-])o1)c1ccco1 [AF-2, 2-(2-Furyl)-3-(5-nitro-2-furyl) acrylamide, reference compound]
Number of Revertant Colonies ([1]; −S9, 0.1 µg/plate): 439 ± 30

CCOS(C)(=O)=O [EMS, ethyl methanesulfonate, reference compound]
Mutant spots per individual (number of spots), Large Single ([3]; EMS 5 mM alone): 0.40 (16) | Mutant spots per individual (number of spots), Small Single ([3]; EMS 5 mM alone): 10.00 (400) | Mutant spots per individual (number of spots), Total ([3]; EMS 5 mM alone): 10.40 (416) | Mutant spots per individual (number of spots), Twin ([3]; EMS 5 mM alone): 0 (0) | Statistical diagnosis, Large Single ([3]; EMS 5 mM alone, vs DI): + | Statistical diagnosis, Small Single ([3]; EMS 5 mM alone, vs DI): + | Mutant spots per individual (number of spots), Large Single ([4]; EMS 5 mM alone): 1.75 (70) | Mutant spots per individual (number of spots), Small Single ([4]; EMS 5 mM alone): 5.60 (224) | Mutant spots per individual (number of spots), Total ([4]; EMS 5 mM alone): 7.80 (312) | Mutant spots per individual (number of spots), Twin ([4]; EMS 5 mM alone): 0.45 (18) | Statistical diagnosis, Large Single ([4]; EMS 5 mM alone, vs DI): + | Statistical diagnosis, Small Single ([4]; EMS 5 mM alone, vs DI): + | Statistical diagnosis, Total ([4]; EMS 5 mM alone, vs DI): + | Statistical diagnosis, Twin ([4]; EMS 5 mM alone, vs DI): +

Cn1c(N)nc2c3cccnc3ccc21 [IQ, 2-Amino-3-methylimidazo(4,5-f) quinoline, reference compound]
Number of Revertant Colonies [5]: 730 ± 39

CNC(N)=O [Methylurea, methylurea, reference compound]
Statistical diagnosis, Small Single ([3]; in vivo): − | Statistical diagnosis, Small Single ([4]; in vivo): − | Statistical diagnosis, Total ([4]; in vivo): −

CN(N=O)C(N)=O [NMU, N-nitrosomethylurea, reference compound]
Mutant spots per individual (number of spots), Large Single [3, 9]: 0.40 (16) | Mutant spots per individual (number of spots), Small Single [3, 9]: 1.43 (57) | Mutant spots per individual (number of spots), Total [3, 9]: 1.93 (77) | Mutant spots per individual (number of spots), Twin [3, 9]: 0.10 (4) | Statistical diagnosis, Large Single ([3]; NMU alone, vs DI): + | Statistical diagnosis, Small Single ([3]; NMU alone, vs DI): − | Statistical diagnosis, Total ([3]; NMU alone, vs DI): + | Mutant spots per individual (number of spots), Large Single [4, 9]: 0.10 (4) | Mutant spots per individual (number of spots), Small Single [4, 9]: 1.70 (68) | Mutant spots per individual (number of spots), Total [4, 9]: 2.00 (80) | Mutant spots per individual (number of spots), Twin [4, 9]: 0.20 (8) | Statistical diagnosis, Small Single ([4]; NMU alone, vs DI): + | Statistical diagnosis, Total ([4]; NMU alone, vs DI): + | Statistical diagnosis, Twin ([4]; NMU alone, vs DI): +

O=N[O-].[Na+] [Nitrite, sodium nitrite, reference compound]
Mutant spots per individual (number of spots), Large Single [3, 10]: 0.03 (1) | Mutant spots per individual (number of spots), Small Single [3, 10]: 0.25 (10) | Mutant spots per individual (number of spots), Total [3, 10]: 0.28 (11) | Mutant spots per individual (number of spots), Twin [3, 10]: 0 (0) | Statistical diagnosis, Small Single ([3]; Nitrite alone, vs DI): − | Mutant spots per individual (number of spots), Large Single [4, 10]: 0 (0) | Mutant spots per individual (number of spots), Small Single [4, 10]: 0.05 (2) | Mutant spots per individual (number of spots), Total [4, 10]: 0.08 (3) | Mutant spots per individual (number of spots), Twin [4, 10]: 0.03 (1) | Statistical diagnosis, Small Single ([4]; Nitrite alone, vs DI): − | Statistical diagnosis, Total ([4]; Nitrite alone, vs DI): −

Cn1c(N)nc2ncc(-c3ccccc3)cc21 [PhIP, 2-amino-1-methyl-6-phenylimidazo (4,5-b) pyridine, reference compound]
Number of Revertant Colonies [6]: 400 ± 11

CCOC(N)=O [URE, urethane, reference compound]
Mutant spots per individual (number of spots), Large Single [7]: 0.08 (3) | Mutant spots per individual (number of spots), Small Single [7]: 3.73 (149) | Mutant spots per individual (number of spots), Total Spots [7]: 3.80 and 3.80 (152) | Mutant spots per individual (number of spots), Twin [7]: 0 (0) | Statistical diagnosis, Large Single ([7]; vs DI): + | Statistical diagnosis, Small Single ([7]; vs DI): + | Statistical diagnosis, Total Spots ([7]; vs DI): + | Mutant spots per individual (number of spots), Large Single [8]: 3.10 (62) | Mutant spots per individual (number of spots), Small Single [8]: 10.10 (202) | Mutant spots per individual (number of spots), Total Spots [8]: 14.50 and 14.50 (290) | Mutant spots per individual (number of spots), Twin [8]: 1.30 (26) | Statistical diagnosis, Large Single ([8]; vs DI): + | Statistical diagnosis, Small Single ([8]; vs DI): + | Statistical diagnosis, Total Spots ([8]; vs DI): + | Statistical diagnosis, Twin ([8]; vs DI): +
